Measured values: the kinase profiling compilation of Christmann-Franck et al. (2016)

Experiments:
Assay in all cases: KINOMEscan competition binding
Details in all cases: compound 10.0 µM
AAK1 (human) = AAK1 (human) (UniProt Q2M2I8)
CSNK1G2 (human) = CSNK1G2 (human) (UniProt P78368)
RPS6KA2 KD2 (human) = RPS6KA2 KD2 (human) (UniProt Q15349)
DAPK1 (human) = DAPK1 (human) (UniProt P53355)
PLK1 (human) = PLK1 (human) (UniProt P53350)
CLK1 (human) = CLK1 (human) (UniProt P49759)
STK17A (human) = STK17A (human) (UniProt Q9UEE5)
DAPK2 (human) = DAPK2 (human) (UniProt Q9UIK4)
PIM3 (human) = PIM3 (human) (UniProt Q86V86)
RPS6KA5 KD2 (human) = RPS6KA5 KD2 (human) (UniProt O75582)
TAOK3 (human) = TAOK3 (human) (UniProt Q9H2K8)
SRPK1 (human) = SRPK1 (human) (UniProt Q96SB4)
PIK3CB (human) = PIK3CB (human) (UniProt P42338)
BMP2K (human) = BMP2K (human) (UniProt Q9NSY1)
CLK2 (human) = CLK2 (human) (UniProt P49760)
RIOK1 (human) = RIOK1 (human) (UniProt Q9BRS2)
RIOK3 (human) = RIOK3 (human) (UniProt O14730)
CSNK2A2 (human) = CSNK2A2 (human) (UniProt P19784)
PIM1 (human) = PIM1 (human) (UniProt P11309)
PDGFRB (human) = PDGFRB (human) (UniProt P09619)
STK17B (human) = STK17B (human) (UniProt O94768)
HIPK1 (human) = HIPK1 (human) (UniProt Q86Z02)
SRPK3 (human) = SRPK3 (human) (UniProt Q9UPE1)
RPS6KA4 KD2 (human) = RPS6KA4 KD2 (human) (UniProt O75676)
CSNK2A1 (human) = CSNK2A1 (human) (UniProt P68400)
PIK3CG (human) = PIK3CG (human) (UniProt P48736)
PIM2 (human) = PIM2 (human) (UniProt Q9P1W9)
DAPK3 (human) = DAPK3 (human) (UniProt O43293)
ZAP70 (human) = ZAP70 (human) (UniProt P43403)
[1] = system: EIF2AK4 KD2 (human), Q9P2K8 [S808G]

Chain of CSNK2A1 (human) (P68400 whole entry, looked up): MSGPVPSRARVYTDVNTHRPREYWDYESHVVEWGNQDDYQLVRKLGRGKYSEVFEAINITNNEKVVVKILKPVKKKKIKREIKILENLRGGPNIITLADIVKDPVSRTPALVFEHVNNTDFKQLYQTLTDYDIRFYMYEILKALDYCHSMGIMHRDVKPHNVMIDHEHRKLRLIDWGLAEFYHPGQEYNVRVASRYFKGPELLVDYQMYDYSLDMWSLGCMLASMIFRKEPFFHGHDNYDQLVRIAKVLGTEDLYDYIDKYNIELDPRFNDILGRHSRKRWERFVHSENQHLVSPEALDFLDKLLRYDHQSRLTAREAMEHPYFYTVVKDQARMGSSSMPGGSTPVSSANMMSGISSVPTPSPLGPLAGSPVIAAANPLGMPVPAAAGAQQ
Chain of DAPK2 (human) (Q9UIK4 whole entry, looked up): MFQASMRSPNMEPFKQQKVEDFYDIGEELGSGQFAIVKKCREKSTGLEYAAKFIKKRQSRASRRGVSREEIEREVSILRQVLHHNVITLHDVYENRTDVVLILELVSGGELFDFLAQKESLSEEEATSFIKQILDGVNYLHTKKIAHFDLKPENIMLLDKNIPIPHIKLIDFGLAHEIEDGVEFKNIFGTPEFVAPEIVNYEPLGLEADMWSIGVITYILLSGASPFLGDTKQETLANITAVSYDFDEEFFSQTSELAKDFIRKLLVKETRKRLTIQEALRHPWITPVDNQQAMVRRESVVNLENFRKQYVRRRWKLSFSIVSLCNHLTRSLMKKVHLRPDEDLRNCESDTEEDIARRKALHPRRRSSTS
Chain of CSNK2A2 (human) (P19784 whole entry, looked up): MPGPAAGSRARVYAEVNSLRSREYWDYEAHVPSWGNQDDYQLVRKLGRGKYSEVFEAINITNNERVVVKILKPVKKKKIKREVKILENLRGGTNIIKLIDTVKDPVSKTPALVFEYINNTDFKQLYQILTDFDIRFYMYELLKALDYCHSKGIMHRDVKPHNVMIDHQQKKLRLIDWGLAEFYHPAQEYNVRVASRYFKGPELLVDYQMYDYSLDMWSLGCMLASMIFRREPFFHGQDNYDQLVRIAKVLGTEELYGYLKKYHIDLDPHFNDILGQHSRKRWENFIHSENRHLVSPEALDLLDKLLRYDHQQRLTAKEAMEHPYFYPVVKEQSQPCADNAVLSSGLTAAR
Chain of DAPK3 (human) (O43293 whole entry, looked up): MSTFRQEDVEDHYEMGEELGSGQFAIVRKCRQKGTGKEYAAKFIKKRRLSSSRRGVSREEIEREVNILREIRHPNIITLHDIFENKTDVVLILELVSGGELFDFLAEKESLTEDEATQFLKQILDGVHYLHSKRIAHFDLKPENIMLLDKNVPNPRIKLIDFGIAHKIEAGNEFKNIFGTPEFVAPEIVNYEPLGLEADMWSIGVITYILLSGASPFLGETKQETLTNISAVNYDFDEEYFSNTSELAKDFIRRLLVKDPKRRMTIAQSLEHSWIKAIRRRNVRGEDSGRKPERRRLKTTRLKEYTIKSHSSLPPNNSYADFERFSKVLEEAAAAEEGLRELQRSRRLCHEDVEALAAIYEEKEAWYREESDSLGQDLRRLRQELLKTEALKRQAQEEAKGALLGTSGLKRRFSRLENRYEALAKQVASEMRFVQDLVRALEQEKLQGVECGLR
Chain of RPS6KA4 KD2 (human) (O75676 whole entry, looked up): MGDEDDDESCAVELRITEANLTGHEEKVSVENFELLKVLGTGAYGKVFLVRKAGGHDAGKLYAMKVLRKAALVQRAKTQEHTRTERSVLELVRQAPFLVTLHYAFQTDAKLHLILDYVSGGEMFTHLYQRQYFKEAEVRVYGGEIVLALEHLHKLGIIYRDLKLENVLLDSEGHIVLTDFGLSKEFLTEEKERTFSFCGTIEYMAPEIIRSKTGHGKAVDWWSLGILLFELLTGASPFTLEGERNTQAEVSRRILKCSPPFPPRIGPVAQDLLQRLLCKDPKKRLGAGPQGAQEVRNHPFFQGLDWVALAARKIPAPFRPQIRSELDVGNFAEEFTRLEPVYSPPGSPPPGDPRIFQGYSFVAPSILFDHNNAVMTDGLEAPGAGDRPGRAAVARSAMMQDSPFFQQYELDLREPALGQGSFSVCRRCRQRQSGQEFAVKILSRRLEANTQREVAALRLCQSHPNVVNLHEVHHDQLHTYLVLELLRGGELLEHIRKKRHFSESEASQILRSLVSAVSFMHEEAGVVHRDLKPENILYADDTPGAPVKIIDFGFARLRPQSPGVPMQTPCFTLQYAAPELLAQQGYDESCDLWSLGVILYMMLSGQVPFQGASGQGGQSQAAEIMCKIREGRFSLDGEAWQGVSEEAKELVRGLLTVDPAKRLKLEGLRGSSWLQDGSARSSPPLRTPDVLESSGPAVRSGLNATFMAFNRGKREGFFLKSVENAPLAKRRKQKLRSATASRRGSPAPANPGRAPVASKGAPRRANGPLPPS
Chain of RIOK1 (human) (Q9BRS2 whole entry, looked up): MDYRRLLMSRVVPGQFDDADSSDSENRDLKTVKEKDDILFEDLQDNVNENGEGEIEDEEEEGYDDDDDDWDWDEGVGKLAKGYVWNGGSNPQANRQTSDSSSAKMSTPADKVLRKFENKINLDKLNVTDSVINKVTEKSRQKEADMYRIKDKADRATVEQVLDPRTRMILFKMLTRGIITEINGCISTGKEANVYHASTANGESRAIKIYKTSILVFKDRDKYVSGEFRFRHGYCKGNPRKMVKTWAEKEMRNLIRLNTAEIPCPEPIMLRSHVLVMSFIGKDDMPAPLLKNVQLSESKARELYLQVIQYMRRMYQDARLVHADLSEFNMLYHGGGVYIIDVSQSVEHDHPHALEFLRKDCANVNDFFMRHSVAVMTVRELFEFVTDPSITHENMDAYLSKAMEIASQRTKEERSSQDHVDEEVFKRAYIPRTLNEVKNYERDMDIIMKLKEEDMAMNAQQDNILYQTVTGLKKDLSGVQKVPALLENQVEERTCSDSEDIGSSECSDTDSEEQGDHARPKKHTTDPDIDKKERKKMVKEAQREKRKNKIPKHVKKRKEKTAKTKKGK
Chain of TAOK3 (human) (Q9H2K8 whole entry, looked up): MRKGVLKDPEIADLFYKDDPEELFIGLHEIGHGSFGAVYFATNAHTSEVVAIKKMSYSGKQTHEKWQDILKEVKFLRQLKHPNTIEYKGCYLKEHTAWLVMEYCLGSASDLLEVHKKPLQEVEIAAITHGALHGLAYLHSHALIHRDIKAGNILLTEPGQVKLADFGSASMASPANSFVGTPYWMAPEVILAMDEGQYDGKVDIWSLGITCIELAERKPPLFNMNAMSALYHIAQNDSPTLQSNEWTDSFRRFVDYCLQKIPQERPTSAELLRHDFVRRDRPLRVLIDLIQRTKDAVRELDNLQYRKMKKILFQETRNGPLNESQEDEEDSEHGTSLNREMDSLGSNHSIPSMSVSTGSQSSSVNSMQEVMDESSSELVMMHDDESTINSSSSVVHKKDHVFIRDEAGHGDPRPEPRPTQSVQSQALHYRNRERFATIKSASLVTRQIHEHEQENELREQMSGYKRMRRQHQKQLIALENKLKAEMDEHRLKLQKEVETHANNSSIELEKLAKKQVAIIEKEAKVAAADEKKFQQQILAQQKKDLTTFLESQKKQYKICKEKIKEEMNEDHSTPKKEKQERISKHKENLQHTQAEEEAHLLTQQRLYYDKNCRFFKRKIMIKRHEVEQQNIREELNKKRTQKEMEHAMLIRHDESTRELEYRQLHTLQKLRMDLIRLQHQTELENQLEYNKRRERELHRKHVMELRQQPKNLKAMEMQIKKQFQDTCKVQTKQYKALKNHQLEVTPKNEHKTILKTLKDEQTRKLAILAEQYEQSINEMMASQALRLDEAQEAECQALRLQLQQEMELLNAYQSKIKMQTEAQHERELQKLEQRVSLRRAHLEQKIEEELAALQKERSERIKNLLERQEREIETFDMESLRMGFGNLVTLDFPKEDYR
Chain of RPS6KA5 KD2 (human) (O75582 whole entry, looked up): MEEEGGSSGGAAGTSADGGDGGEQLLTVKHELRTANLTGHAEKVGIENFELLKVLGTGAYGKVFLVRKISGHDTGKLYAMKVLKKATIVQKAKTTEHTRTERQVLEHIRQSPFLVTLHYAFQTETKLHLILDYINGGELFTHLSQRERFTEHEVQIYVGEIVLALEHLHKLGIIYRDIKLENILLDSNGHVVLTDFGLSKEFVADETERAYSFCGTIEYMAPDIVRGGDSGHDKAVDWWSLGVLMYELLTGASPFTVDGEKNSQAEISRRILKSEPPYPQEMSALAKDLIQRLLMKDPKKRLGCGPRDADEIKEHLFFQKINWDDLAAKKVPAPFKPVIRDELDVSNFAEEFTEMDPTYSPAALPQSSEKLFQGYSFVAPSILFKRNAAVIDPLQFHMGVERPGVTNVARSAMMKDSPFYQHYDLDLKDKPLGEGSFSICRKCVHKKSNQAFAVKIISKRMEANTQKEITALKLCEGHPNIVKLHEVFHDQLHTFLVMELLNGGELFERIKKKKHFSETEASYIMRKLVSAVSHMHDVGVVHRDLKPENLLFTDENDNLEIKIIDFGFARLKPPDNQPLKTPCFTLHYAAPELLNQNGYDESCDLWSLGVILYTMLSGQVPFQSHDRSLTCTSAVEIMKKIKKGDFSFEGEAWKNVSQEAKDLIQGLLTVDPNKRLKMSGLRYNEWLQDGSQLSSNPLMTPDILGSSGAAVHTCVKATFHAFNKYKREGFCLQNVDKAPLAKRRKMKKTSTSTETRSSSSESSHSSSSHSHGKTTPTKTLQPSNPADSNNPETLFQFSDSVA

O=C1NC(=O)/C(=C/c2c[nH]c(=O)c(-c3ccc(C(=O)Nc4ccc(N5CCNCC5)cc4)cc3)c2)S1 gave a kinase still bound, per cent of control (AAK1 (human)) of 4.4%, a kinase still bound, per cent of control (CSNK1G2 (human)) of 24% and a kinase still bound, per cent of control (RPS6KA2 KD2 (human)) of 29%. It also gave a kinase still bound, per cent of control (DAPK1 (human)) of 3.6%, a kinase still bound, per cent of control (PLK1 (human)) of 17% and a kinase still bound, per cent of control (CLK1 (human)) of 16%. It also gave a kinase still bound, per cent of control (STK17A (human)) of 6.3%, a kinase still bound, per cent of control (DAPK2 (human)) of 6.4% and a kinase still bound, per cent of control (PIM3 (human)) of 10%. For the same compound, the kinase still bound, per cent of control (RPS6KA5 KD2 (human)) was 19%, the kinase still bound, per cent of control (TAOK3 (human)) was 26% and the kinase still bound, per cent of control (SRPK1 (human)) was 31%. The kinase still bound, per cent of control (PIK3CB (human)) was 2.4%, the kinase still bound, per cent of control (BMP2K (human)) was 22% and the kinase still bound, per cent of control (CLK2 (human)) was 0.45%. It also gave a kinase still bound, per cent of control (RIOK1 (human)) of 14%, a kinase still bound, per cent of control (RIOK3 (human)) of 13% and a kinase still bound, per cent of control (CSNK2A2 (human)) of 32%. The kinase still bound, per cent of control (PIM1 (human)) was 9.5%, the kinase still bound, per cent of control (PDGFRB (human)) was 0% and the kinase still bound, per cent of control (STK17B (human)) was 0.6%. The kinase still bound, per cent of control (HIPK1 (human)) was 9%, the kinase still bound, per cent of control (SRPK3 (human)) was 28% and the kinase still bound, per cent of control (RPS6KA4 KD2 (human)) was 0.95%. It also gave a kinase still bound, per cent of control (CSNK2A1 (human)) of 24%, a kinase still bound, per cent of control (PIK3CG (human)) of 22% and a kinase still bound, per cent of control (PIM2 (human)) of 1.2%. It also gave a kinase still bound, per cent of control (DAPK3 (human)) of 4.8%, a kinase still bound, per cent of control (ZAP70 (human)) of 11% and a kinase still bound, per cent of control [1] of 27%.
